{"source": "patent US7238527B2", "about": "“Methods and compositions for rapid in vitro propagation of Swertia chirata” (priority 2001, dated 2007)", "test_system": "Swertia chirata shoots", "experiment": "Rooting of excised four-week shoots on modified MS with auxins (Example 3)", "format": "cell-based", "conditions": "for Rooting %: agar 0.8%", "procedure": "The effect of various auxins on rooting percent and duration may be studied using four-week shoots obtained in the preceding section.\nThe excised shoot may be transferred to modified MS basal culture medium with varied concentrations of several auxins selected from a group comprising IAA, IBA, and NAA as shown in Table 3.\nIn this experiment there are 3 treatments of auxin IAA, IBA and NAA using various levels (1–5 mg/L) supplemented to modified MS media, Supporting system Agar (0.8%).\nFour weeks long shoot achieved in experiment 2 were excised and transferred to above referred medium", "data": [{"substance": "indole butyric acid [IBA]", "values": [{"measurement": "Time to rooting", "setting": "1.0 to 5.0 mg/L auxin in modified MS basal culture medium", "value": "about 8 weeks"}, {"measurement": "Rooting (wks)", "setting": "auxin 1 mg/L in modified MS", "value": 8, "unit": "wks"}, {"measurement": "Rooting %", "setting": "auxin 1 mg/L in modified MS", "value": 60, "unit": "%"}, {"measurement": "Rooting (wks)", "setting": "auxin 2 mg/L in modified MS", "value": 8, "unit": "wks"}, {"measurement": "Rooting %", "setting": "auxin 2 mg/L in modified MS", "value": 62, "unit": "%"}, {"measurement": "Rooting (wks)", "setting": "auxin 5 mg/L in modified MS", "value": 8, "unit": "wks"}, {"measurement": "Rooting %", "setting": "auxin 5 mg/L in modified MS", "value": 60, "unit": "%"}, {"measurement": "Root morphology", "setting": "in words", "value": "white colored, thick, and short"}]}]}
